The results in this text go back to patent publication US6500865B1, “Sulfonamide derivatives” (Eli Lilly and Company, priority 1998, dated 2002).

The assay deals with T1, human GluR4B receptor (Homo sapiens, UniProt P48058).
T1 construct: expressed in transfected cells
The assay is described as follows: potentiation of agonist-induced excitability of human GluR4B receptor expressed in HEK 293 cells. Format: cell-based. As to conditions: human GluR4B expressed in HEK 293 cells; qualitative statement. From the text:
The ability of compounds of formula I to potentiate glutamate receptor-mediated response may be determined using fluorescent calcium indicator dyes (Molecular Probes, Eugene, Oreg., Fluo-3) and by measuring glutamate-evoked efflux of calcium into GluR4 transfected HEK293 cells, as described in more detail below.
In one test, 96 well plates containing confluent monolayers of HEK cells stably expressing human GluR4B (obtained as described in European Patent Application Publication Number EP-A1-583917) are prepared. The tissue culture medium in the wells is then discarded, and the wells are each washed once with 200 μl of buffer (glucose, 10 mM, sodium chloride, 138 mM, magnesium chloride, 1 mM, potassium chloride, 5 mM, calcium chloride, 5 mM, N-[2-hydroxyethyl]-piperazine-N-[2-ethanesulfonic acid], 10 mM, to pH 7.1 to 7.3). […]
Each test is then performed as follows. […] A second fluorescent reading is taken after 5 minutes incubation. 15 μl of 400 μM glutamate solution is then added to each well (final glutamate concentration 100 μM), and a third reading is taken. The activities of test compounds and cyclothiazide solutions are determined by subtracting the second from the third reading (fluorescence due to addition of glutamate in the presence or absence of test compound or cyclothiazide) and are expressed relative to enhance fluorescence produced by 100 μM cyclothiazide.

T1 sequence (P48058 21-902): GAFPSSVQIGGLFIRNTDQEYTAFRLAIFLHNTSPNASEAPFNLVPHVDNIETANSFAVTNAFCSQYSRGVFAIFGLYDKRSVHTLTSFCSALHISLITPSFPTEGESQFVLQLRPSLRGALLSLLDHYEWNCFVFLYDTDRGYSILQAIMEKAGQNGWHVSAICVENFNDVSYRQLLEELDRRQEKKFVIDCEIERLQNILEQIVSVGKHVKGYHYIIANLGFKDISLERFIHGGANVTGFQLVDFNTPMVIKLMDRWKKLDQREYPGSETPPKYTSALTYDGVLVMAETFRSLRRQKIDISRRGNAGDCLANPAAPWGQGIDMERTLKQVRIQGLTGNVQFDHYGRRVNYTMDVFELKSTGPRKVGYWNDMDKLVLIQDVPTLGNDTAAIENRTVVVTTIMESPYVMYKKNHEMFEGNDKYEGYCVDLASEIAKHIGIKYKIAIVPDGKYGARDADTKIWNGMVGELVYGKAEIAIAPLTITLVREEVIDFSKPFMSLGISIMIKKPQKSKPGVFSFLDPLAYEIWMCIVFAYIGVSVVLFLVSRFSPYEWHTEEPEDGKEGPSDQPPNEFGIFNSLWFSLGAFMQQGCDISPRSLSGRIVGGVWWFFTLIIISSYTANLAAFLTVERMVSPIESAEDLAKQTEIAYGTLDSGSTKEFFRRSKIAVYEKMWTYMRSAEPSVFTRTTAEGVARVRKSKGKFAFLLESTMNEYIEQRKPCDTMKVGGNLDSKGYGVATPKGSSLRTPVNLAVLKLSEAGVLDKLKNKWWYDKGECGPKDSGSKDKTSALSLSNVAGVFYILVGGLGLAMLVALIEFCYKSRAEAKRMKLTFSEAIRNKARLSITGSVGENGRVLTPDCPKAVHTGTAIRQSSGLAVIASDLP

For the compound `NS(=O)(=O)c1cc2c(cc1Cl)NC(C1CC3C=CC1C3)NS2(=O)=O` (stereo not shown) [cyclothiazide], the “potentiation of agonist-induced excitability of human GluR4B receptor” value is “potentiate”.
